Numbering of substitutions follows the chain as printed.
What was measured:
[1] = target: T1, Type-1 angiotensin II receptor (Oryctolagus cuniculus, UniProt P34976); assay: (§1) Antagonist activity at angiotensin AT1 receptor in rabbit aorta; type: functional, tissue-based; conditions: read-out: pA2 (converted)
T1 sequence (P34976 whole entry): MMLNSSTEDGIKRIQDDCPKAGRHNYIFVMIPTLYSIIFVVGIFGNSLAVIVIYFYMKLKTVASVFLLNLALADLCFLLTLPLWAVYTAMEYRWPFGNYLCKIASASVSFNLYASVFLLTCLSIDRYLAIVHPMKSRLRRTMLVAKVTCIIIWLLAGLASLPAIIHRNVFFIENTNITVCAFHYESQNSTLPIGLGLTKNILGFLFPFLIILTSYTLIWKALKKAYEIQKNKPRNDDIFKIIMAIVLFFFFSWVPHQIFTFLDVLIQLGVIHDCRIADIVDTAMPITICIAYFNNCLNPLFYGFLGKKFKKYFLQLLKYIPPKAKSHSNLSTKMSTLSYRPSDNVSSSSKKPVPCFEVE

[2] = Antagonist activity at angiotensin AT1 receptor in rat aorta; type: functional, tissue-based
[3] = Binding affinity to angiotensin AT1 receptor in rat adrenal cortical membranes; type: cell membranes
[4] = Displacement of radiolabeled angiotensin2 from angiotensin AT1 receptor in rat adrenal cortex membranes; type: cell membranes, Membrane
Rattus norvegicus [5] = assay: Ratio of compound ED50 to losartan ED50 for po dosed renal hypertensive rat model; type: functional
[6] = target: T1, Type-1 angiotensin II receptor; assay: Binding affinity to angiotensin AT1 receptor in rabbit aortic rings
Rattus norvegicus [7] = assay: Antihypertensive activity in iv dosed renal hypertensive rat model; type: functional
Rattus norvegicus [8] = assay: Antihypertensive activity in po dosed renal hypertensive rat model; type: functional; conditions: read-out: ID50 (the source's name)
[9] = Antagonist activity at angiotensin AT1 receptor in rat liver membranes; type: functional, cell membranes, Membrane
[10] = Oral bioavailability in rat; type: ADME, organism-based; conditions: in vivo
Rattus norvegicus [11] = assay: Antihypertensive activity in po dosed conscious rat; type: functional; conditions: read-out: ID50 (the source's name)
[12] = target: T1, Type-1 angiotensin II receptor; assay: Antagonist activity at angiotensin AT1 receptor in rabbit aortic strip assessed as inhibition of angiotensin 2-induced contractile response; type: functional
[13] = target: T2, Type-1 angiotensin II receptor (Homo sapiens, UniProt P30556); assay: Binding affinity to angiotensin AT1 receptor
T2 sequence (P30556 whole entry): T1 sequence (P34976 whole entry) with M2I, A49V, V254I, V270I, H272R, K311R, S349T, V353A

[14] = target: T3, Type-2 angiotensin II receptor (Homo sapiens, UniProt P50052); assay: Binding affinity to angiotensin AT2 receptor
T3 sequence (P50052 whole entry): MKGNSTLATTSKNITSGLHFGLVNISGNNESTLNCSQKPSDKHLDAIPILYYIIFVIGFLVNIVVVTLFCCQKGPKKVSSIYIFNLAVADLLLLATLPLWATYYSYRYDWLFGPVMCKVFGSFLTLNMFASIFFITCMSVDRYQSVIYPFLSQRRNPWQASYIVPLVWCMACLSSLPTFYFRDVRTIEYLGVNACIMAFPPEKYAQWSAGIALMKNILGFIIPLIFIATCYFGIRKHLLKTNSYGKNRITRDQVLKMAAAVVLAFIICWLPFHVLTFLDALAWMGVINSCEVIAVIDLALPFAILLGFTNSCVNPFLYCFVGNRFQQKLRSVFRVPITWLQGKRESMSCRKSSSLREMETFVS

[15] = target: T4, Type-1 angiotensin II receptor (Bos taurus) (UniProt P25104); assay: Binding affinity to angiotensin AT1 receptor in bovine adrenal cortex membranes; type: cell membranes; conditions: Membrane
T4 sequence (whole entry): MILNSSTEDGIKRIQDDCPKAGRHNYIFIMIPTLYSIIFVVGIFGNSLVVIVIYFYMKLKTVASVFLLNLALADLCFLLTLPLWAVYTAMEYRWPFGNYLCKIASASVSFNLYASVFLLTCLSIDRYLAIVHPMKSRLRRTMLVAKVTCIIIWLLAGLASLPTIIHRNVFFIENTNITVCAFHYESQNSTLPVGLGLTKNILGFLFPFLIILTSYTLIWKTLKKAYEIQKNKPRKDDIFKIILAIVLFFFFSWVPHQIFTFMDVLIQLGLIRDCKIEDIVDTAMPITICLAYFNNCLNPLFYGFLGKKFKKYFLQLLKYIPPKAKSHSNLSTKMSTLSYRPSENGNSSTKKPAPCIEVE

[16] = Selectivity ratio of IC50 for angiotensin AT1 receptor to IC50 for angiotensin AT2 receptor
Rattus norvegicus [17] = assay: Inhibition of angiotensin 2-induced response in iv dosed normotensive rat; type: functional
[18] = target: T5, Type-1 angiotensin II receptor (Oryctolagus cuniculus) (UniProt P34976); assay: as §1; type: functional, tissue-based
T5 sequence (whole entry): T1 sequence (P34976 whole entry)

[19] = target: T2, Type-1 angiotensin II receptor; assay: Antagonist activity at angiotensin AT1 receptor; type: functional; conditions: read-out: pA2 (converted)

Q: Which Kb [1] does the source give for `CCc1cc(OCc2ccc(-c3ccccc3-c3nnn[nH]3)cc2)c2ccccc2n1` here?
A: 5.01 nM

Q: Which Kb [2] does the source give for `CCCCc1c(Cc2ccc(-c3ccccc3-c3nn[nH]n3)cc2)[n+]([O-])c2ccccc2[n+]1[O-]` here?
A: 2.1 nM

Q: What about the Ki [3] of the same molecule?
A: 2.6 nM

Q: For `CCCCCCC(C(=O)O)n1cnc(NC(=O)c2cccc(O)c2C(=O)O)c1` (stereo unspecified), which Kb [1] is on record?
A: 100 nM

Q: With `CCCc1nc(CC)c(C(=O)O)n1Cc1ccc(-c2ccccc2-c2nn[nH]n2)cc1` as the molecule, how does the IC50 [4] read?
A: 6 nM

Q: What about the “Ratio ED50” value (Rattus norvegicus [5]) of the same molecule?
A: 20

Q: Which IC50 [6] does the source give for `CCCCC1=N[C@](C)(C2CCCCC2)C(=O)N1Cc1ccc(-c2ccccc2-c2nnn[nH]2)cc1` here?
A: 0.77 nM

Q: Which results are given for `CCCCc1nc(SC)c(C(=O)O)n1Cc1ccc(-c2ccccc2-c2nnn[nH]2)cc1`?
A: ED50 (Rattus norvegicus [7]; read-out: ID50 (the source's name)): 0.05 mg/kg; IC50 [4]: 0.2 nM; ED50 (Rattus norvegicus [8]): 0.4 mg/kg

Q: With `Cc1nc(Sc2ccc(-c3ccccc3-c3nn[nH]n3)cc2)c2ccccc2n1` as the molecule, how does the IC50 [9] read?
A: 350 nM

Q: With `CCCCC(=O)N(Cc1ccc(-c2ccccc2-c2nnn[nH]2)cc1)[C@H](C(=O)O)C(C)C` as the molecule, how does the IC50 [2] read?
A: 2.7 nM

Q: What does the source list for `CCOc1nc2cccc(C(=O)OC(C)OC(=O)OC3CCCCC3)c2n1Cc1ccc(-c2ccccc2-c2nnn[nH]2)cc1` (stereo unspecified) [CANDESARTAN CILEXETIL]?
A: bioavailability [10]: 28%; ED50 (Rattus norvegicus [11]): 0.06 mg/kg; IC50 [12]: 200 nM

Q: For `CCCc1nc2ccccc2n1C(F)(F)C(O)c1ccc(-c2ccccc2-c2nnn[nH]2)cc1` (stereo unspecified), which ED30 (Rattus norvegicus [7]) is on record?
A: 2 mg/kg

Q: And the Ki [13]?
A: 29 nM

Q: And the Ki [14]?
A: 480 nM

Q: Which Activity [15] does the source give for `CCOc1nc2cccc(C(=O)O)c2n1Cc1ccc(-c2ccccc2-c2noc(=O)[nH]2)cc1` [AZILSARTAN] here?
A: 4.2 nM

Q: What about the ED50 (Rattus norvegicus [11]) of the same molecule?
A: 0.04 mg/kg

Q: With `CCCCc1nc2ccccc2[n+]([O-])c1Oc1ccc(-c2ccccc2-c2nn[nH]n2)cc1` as the molecule, how does the Ki [14] read?
A: 4.5 nM

Q: For `CCCCc1nnc(SCc2ccccc2C(=O)O)n1Cc1ccc(-c2ccccc2-c2nn[nH]n2)cc1`, which IC50 [13] is on record?
A: 1.4 nM

Q: With `CCc1nc2ccc(N(Cc3ccccc3)C(=O)c3cccs3)cc2c(=O)n1Cc1ccc(-c2ccccc2-c2nn[nH]n2)cc1` as the molecule, how does the Ratio IC50 [16] read?
A: 3000

Q: For `CCc1cc(OCc2ccc(-c3ccccc3-c3nnn[nH]3)cc2)c2c(n1)CCCC2`, which Kb [1] is on record?
A: 0.0501 nM

Q: For `CCCc1nc2c(n1Cc1ccc(-c3ccccc3-c3nnn[nH]3)cc1)C(=O)CCCC2` [PRATOSARTAN], which Kb [1] is on record?
A: 0.0912 nM

Q: For `CCCCc1ncc(/C=C(\Cc2cccs2)C(=O)O)n1Cc1ccc(C(=O)O)cc1` [EPROSARTAN], which ID60 (Rattus norvegicus [17]) is on record?
A: 0.08 mg/kg

Q: Which Ki [3] does the source give for `CCCCc1nc(C)n(Cc2sccc2C(=O)OC)c(=O)c1Cc1ccc(-c2ccccc2-c2nnn[nH]2)cc1` here?
A: 0.9 nM

Q: What does the source list for `Cc1ccnc2c1nc(C1CC1)n2Cc1ccc(-c2ccccc2C(=O)O)cc1`?
A: Kb [1]: 2 nM; IC50 [3]: 52 nM

Q: For `CCCCc1nc2ccn(CC(=O)N3CCCCC3)c(=O)c2n1Cc1ccc(-c2ccccc2S(=O)(=O)NC(=O)OCc2ccccc2)cc1F`, which Ratio IC50 [16] is on record?
A: 0.74

Q: What about the IC50 [13] of the same molecule?
A: 4.7 nM

Q: What about the IC50 [14] of the same molecule?
A: 3.5 nM

Q: Which Activity [15] does the source give for `CCOc1nc2cccc(C(=O)O)c2n1Cc1ccc(-c2ccccc2-c2nsc(O)n2)cc1` here?
A: 2.5 nM

Q: With `CCCCc1nc2cccc(C(=O)O)c2n1Cc1ccc(-c2ccccc2-c2nnn[nH]2)cc1` as the molecule, how does the IC50 [12] read?
A: 0.055 nM

Q: For `CCCSC1=NS(=O)(=O)c2ccc(C(=O)O)cc2N1Cc1ccc(-c2ccccc2-c2nn[nH]n2)cc1`, which Kb [18] is on record?
A: 0.08 nM

Q: What about the Ki [3] of the same molecule?
A: 8.5 nM

Q: With `CCc1nc2ccc(NC(=O)N(C)C(C)C)cc2c(=O)n1Cc1ccc(-c2ccccc2S(=O)(=O)NC(=O)OCCC2CC2)cc1F` as the molecule, how does the Ratio IC50 [16] read?
A: 2

Q: Which IC50 [2] does the source give for `CCCCc1nc2cccnc2n1Cc1ccc(-n2cccc2-c2nnn[nH]2)cc1` here?
A: 0.6 nM

Q: And the Kb [1]?
A: 3.55 nM

Q: What does the source list for `CCCCc1nc(CCCC)n(Cc2ccc(-c3ccccc3-c3nnn[nH]3)cc2)n1`?
A: Kb [19]: 2 nM; IC50 [13]: 5.6 nM

Source: ChEMBL document CHEMBL1667742, “Angiotensin II receptor type 1 (AT1) selective nonpeptidic antagonists--a perspective” (Bioorg Med Chem, 2010)
